Data reported in US5824785A, “Dyes for ink jet printing” (Ilford Imaging Switzerland GmbH, priority 1995, dated 1998).
Values after ≈ are worked out from the molar mass of the structure shown.

Assay: solubility of the dyes in water
Format: physicochemical
Conditions: excess dye stirred 1 h at 50° C., cooled to 20° C., filtered, spectroscopic determination, read-out: Solubility (in g per 100 ml)
Method: The solubilities of the dyes according to the invention were determined as follows:
An excess of dye was heated at 50° C. in water with stirring for one hour. The mixture was then cooled down to 20° C. and filtered, and the dye content of the clear solution was determined spectroscopically.

| SMILES | solubility [mg/mL] |
| --- | --- |
| Nc1ccc2cc(S(=O)(=O)O)cc(O)c2c1N=Nc1ccc(Nc2nc(NCCS(=O)(=O)O)nc(NCCS(=O)(=O)O)n2)cc1S(=O)(=O)O [compound 102] | 260 (≈ 340 mM) |
| COc1cc(N=Nc2c(N)ccc3cc(S(=O)(=O)O)cc(O)c23)c(C)cc1Nc1nc(NCCO)nc(Nc2cccc(S(=O)(=O)O)c2)n1 [dye 1, reference compound] | 200 (≈ 281 mM) |
| CCCCCCNc1nc(NCCCCCC)nc(Nc2cc(S(=O)(=O)O)cc3cc(S(=O)(=O)O)c(N=Nc4ccccc4S(=O)(=O)O)c(O)c23)n1 [dye 5, reference compound] | 150 (≈ 192 mM) |

The remaining lines, values ahead:

| solubility [mg/mL] | SMILES |
| --- | --- |
| 350 (≈ 490 mM) | CN(CCO)c1nc(NCCS(=O)(=O)O)nc(Nc2ccc(N=Nc3c(N)ccc4cc(S(=O)(=O)O)cc(O)c34)c(S(=O)(=O)O)c2)n1 [compound 100] |
| 320 (≈ 430 mM) | Nc1ccc2cc(S(=O)(=O)O)cc(O)c2c1N=Nc1ccc(Nc2nc(NCCS(=O)(=O)O)nc(N(CCO)CCO)n2)cc1S(=O)(=O)O [compound 101] |
